As usually defined, the IC50 is the concentration needed to halve the response being measured.

Here are results for 19 compounds from patent US6686355B2, “Biphenyl sulfonamides useful as matrix metalloproteinase inhibitors” (Warner-Lambert Company, priority 2001, dated 2004).

Assay type in all cases: biochemical
The target of experiment [1] is T1, MMP-2FL (full length Gelatinase A) (Homo sapiens, UniProt P08253).
T1 sequence (P08253 110-660): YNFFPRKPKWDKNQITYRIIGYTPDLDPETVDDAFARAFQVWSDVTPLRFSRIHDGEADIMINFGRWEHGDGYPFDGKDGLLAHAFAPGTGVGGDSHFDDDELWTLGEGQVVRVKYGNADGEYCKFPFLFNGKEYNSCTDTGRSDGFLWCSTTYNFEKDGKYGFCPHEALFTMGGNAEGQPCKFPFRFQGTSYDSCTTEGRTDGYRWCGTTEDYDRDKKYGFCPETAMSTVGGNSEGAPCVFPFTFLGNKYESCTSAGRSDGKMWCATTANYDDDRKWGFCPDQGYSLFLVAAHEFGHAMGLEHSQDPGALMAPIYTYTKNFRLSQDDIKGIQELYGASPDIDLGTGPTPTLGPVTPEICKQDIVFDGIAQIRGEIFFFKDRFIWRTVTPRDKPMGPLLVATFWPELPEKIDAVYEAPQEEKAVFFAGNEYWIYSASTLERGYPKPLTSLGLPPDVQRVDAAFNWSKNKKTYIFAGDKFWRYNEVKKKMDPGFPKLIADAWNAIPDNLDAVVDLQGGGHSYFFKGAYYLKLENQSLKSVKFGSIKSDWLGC
In words: Thiopeptolide hydrolysis assay, MMP-2FL. Particulars: thiopeptolide substrate, HEPES pH 7.0, 22° C. The text has this:
(§1) The assays measure the amount by which a test compound reduces the hydrolysis of a thiopeptolide substrate catalyzed by a matrix metalloproteinase enzyme. Such assays are described in detail by Ye et al., in Biochemistry, 1992;31(45):11231-11235, which is incorporated herein by reference.
(§2) Thiopeptolide substrates show virtually no decomposition or hydrolysis at or below neutral pH in the absence of a matrix metalloproteinase enzyme. A typical thiopeptolide substrate commonly utilized for assays is Ac-Pro-Leu-Gly-thioester-Leu-Leu-Gly-OEt. A 100 μL assay mixture will contain 50 mM of N-2-hydroxyethylpiperazine-N′-2-ethanesulfonic acid buffer (“HEPES”) at pH 7.0, 10 mM CaCl2, 100 μM thiopeptolide substrate, and 1 mM 5,5″-dithio-bis-(2-nitro-benzoic acid) (DTNB). The thiopeptolide substrate concentration may be varied from, for example, 10 to 800 μM to obtain Km and Kcat values. The change in absorbance at 405 nm is monitored on a Thermo Max microplate reader (Molecular Devices, Menlo Park, Calif.) at room temperature (22° C.). The calculation of the amount of hydrolysis of the thiopeptolide substrate is based on E412=13600 M^−1 cm^−1 for the DTNB-derived product 3-carboxy4-nitrothiophenoxide. Assays are carried out with and without matrix metalloproteinase inhibitor compounds, and the amount of hydrolysis is compared for a determination of inhibitory activity of the test compounds.
(§3) Several representative compounds have been evaluated for their ability to inhibit various matrix metalloproteinase enzymes. In Table I, MMP-1FL refers to full length interstitial collagenase; MMP-2FL refers to full length Gelatinase A; MMP-3CD refers to the catalytic domain of stromelysin-1; MMP-7FL refers to full length matrilysin; MMP-9FL refers to full length Gelatinase B; MMP-13CD refers to the catalytic domain of collagenase 3; and MMP-14CD refers to the catalytic domain of MMP-14. Test compounds were evaluated at various concentrations in order to determine their respective IC50 values, the micromolar concentration of compound required to cause a 50% inhibition of the catalytic activity of the respective enzyme.

Experiment [2] has as its target MMP-3CD (catalytic domain of stromelysin-1) (Homo sapiens, UniProt P08254). In words: Thiopeptolide hydrolysis assay, MMP-3CD. The note with it: thiopeptolide substrate, MES pH 6.0.
From the text: as §1, §2, §3
It should be appreciated that the assay buffer used with MMP-3CD was 50 mM of 2-morpholinoethanesulfonic acid monohydrate (“MES”) at pH 6.0 rather than the HEPES buffer at pH 7.0 described above.

The target of experiment [3] is MMP-9FL (full length Gelatinase B) (Homo sapiens, UniProt P14780). The experiment is described as follows: Thiopeptolide hydrolysis assay, MMP-9FL. Particulars: thiopeptolide substrate, HEPES pH 7.0, 22° C.
Sequence of MMP-9FL (full length Gelatinase B) (P14780 94-707, species assumed): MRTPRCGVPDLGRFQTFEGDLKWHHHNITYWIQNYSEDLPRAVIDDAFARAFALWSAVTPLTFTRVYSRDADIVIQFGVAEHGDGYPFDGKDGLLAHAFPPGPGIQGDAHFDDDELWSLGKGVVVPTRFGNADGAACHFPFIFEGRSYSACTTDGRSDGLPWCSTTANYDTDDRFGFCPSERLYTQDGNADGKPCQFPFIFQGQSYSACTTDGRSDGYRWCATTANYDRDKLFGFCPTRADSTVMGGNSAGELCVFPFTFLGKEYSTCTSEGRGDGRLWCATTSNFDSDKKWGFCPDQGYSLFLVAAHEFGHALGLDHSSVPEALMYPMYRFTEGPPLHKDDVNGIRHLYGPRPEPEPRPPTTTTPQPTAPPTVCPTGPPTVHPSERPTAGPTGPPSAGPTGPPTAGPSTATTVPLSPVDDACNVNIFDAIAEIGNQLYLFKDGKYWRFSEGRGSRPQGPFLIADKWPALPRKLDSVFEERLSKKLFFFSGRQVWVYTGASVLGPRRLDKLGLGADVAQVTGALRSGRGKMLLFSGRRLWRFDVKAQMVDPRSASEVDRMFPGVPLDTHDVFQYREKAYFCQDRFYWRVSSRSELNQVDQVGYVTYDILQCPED
From the text: as §1, §2, §3

For experiment [4], the target named is MMP-13CD (catalytic domain of collagenase 3) (Homo sapiens, UniProt P45452). In words: Thiopeptolide hydrolysis assay, MMP-13CD. Particulars: thiopeptolide substrate, HEPES pH 7.0, 22° C.
From the text: as §1, §2, §3

Sequence of MMP-3CD (catalytic domain of stromelysin-1) (P08254 100-272 limits assumed): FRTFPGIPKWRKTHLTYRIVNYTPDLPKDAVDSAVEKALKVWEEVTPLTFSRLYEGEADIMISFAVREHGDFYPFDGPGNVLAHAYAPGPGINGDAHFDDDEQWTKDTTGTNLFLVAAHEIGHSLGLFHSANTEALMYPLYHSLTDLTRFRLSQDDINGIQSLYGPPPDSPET

Regarding `CC1(C)SCCN(S(=O)(=O)c2ccc(-c3cccc(F)c3)cc2)[C@H]1C(=O)O` [Example 58, (S)-4-(3′-Fluoro-biphenyl-4-sulfonyl)-2,2-dimethyl-thiomorpholine-3-carboxylic acid], the IC50 in experiment [1] is 0.134 µM; in experiment [2], 0.082 µM; in experiment [3] it was 6.3 µM; in experiment [4], 0.425 µM.
On the same counts, the results for `CC1(C)SCCN(S(=O)(=O)c2ccc(-c3cccc([N+](=O)[O-])c3)cc2)[C@H]1C(=O)O` [Example 27, (S)-2,2-Dimethyl-4-(3′-nitro-biphenyl-4-sulfonyl)-thiomorpholine-3-carboxylic acid] are more than 100 µM, more than 100 µM, more than 100 µM and more than 100 µM.
Take `CC1(C)SCCN(S(=O)(=O)c2ccc(-c3cccc(C=O)c3)cc2)[C@H]1C(=O)O` [Example 35, (S)-4-(3′-Formyl-biphenyl-4-sulfonyl)-2,2-dimethyl-thiomorpholine-3-carboxylic acid]: the half-maximal inhibitory concentration (IC50) worked out at 0.035 µM in experiment [1], 0.0154 µM in experiment [2], 0.479 µM in experiment [3] and 0.021 µM in experiment [4].
On the same counts, the results for `CC1(C)SCCN(S(=O)(=O)c2ccc(-c3ccc(F)cc3)cc2)[C@H]1C(=O)O` [Example 32, (S)-4-(4′-Fluoro-biphenyl-4-sulfonyl)-2,2-dimethyl-thiomorpholine-3-carboxylic acid] are 0.133 µM, 0.0365 µM, 4.43 µM and 0.145 µM.
In the case of `CC1(C)SCCN(S(=O)(=O)c2ccc(-c3ccc(C(F)(F)F)cc3)cc2)[C@H]1C(=O)O` [Example 57, (S)-2,2-Dimethyl-4-(4′-trifluoromethyl-biphenyl-4-sulfonyl)-thiomorpholine-3-carboxylic acid], the IC50 in experiment [1] came to 0.0088 µM; in experiment [2], 0.0045 µM; in experiment [3], 0.54 µM; in experiment [4], 0.013 µM.
On the same counts, the results for `CC(C)(C)c1ccc(-c2ccc(S(=O)(=O)N3CCSC(C)(C)[C@@H]3C(=O)O)cc2)cc1` [Example 49, (S)-4-(4′-tert-Butyl-biphenyl-4-sulfonyl)-2,2-dimethyl-thiomorpholine-3-carboxylic acid] are 0.23 µM, 0.039 µM, 1.5 µM and 0.061 µM.
Take `CC(C)c1ccc(-c2ccc(S(=O)(=O)N3CCSC(C)(C)[C@@H]3C(=O)O)cc2)cc1` [Example 44, (S)-4-(4′-Isopropyl-biphenyl-4-sulfonyl)-2,2-dimethyl-thiomorpholine-3-carboxylic acid]: the IC50 in experiment [1] came out at 0.015 µM; in experiment [2] it was 0.0088 µM; in experiment [3], 0.37 µM; in experiment [4], 0.02 µM.
Regarding `CC1(C)SCCN(S(=O)(=O)c2ccc(-c3ccc(Cl)cc3Cl)cc2)[C@H]1C(=O)O` [Example 56, (S)-4-(2′,4′-Dichloro-biphenyl-4-sulfonyl)-2,2-dimethyl-thiomorpholine-3-carboxylic acid], the IC50 in experiment [1] amounted to 0.81 µM; in experiment [2], 1.5 µM; in experiment [3] it was 18 µM; in experiment [4], 1.1 µM.
In the case of `CC1(C)SCCN(S(=O)(=O)c2ccc(-c3cccc(OC(F)(F)F)c3)cc2)[C@H]1C(=O)O` [Example 59, (S)-2,2-Dimethyl-4-(3′-trifluoromethoxy-biphenyl-4-sulfonyl)-thiomorpholine-3-carboxylic acid], the IC50 is 5.2 µM in experiment [1], 1.1 µM in experiment [2], 30 µM in experiment [3] and 5.3 µM in experiment [4].
For `CC1(C)SCCN(S(=O)(=O)c2ccc(-c3ccc4c(c3)OCO4)cc2)[C@H]1C(=O)O` [Example 33, (S)-4-(4-1,3-Benzodioxol-5-yl-benzenesulfonyl)-2,2-dimethyl-thiomorpholine-3-carboxylic acid], in that order: 0.0185 µM, 0.0148 µM, 3.15 µM and 0.0443 µM.
As to `CC1(C)SCCN(S(=O)(=O)c2ccc(-c3ccccc3C=O)cc2)[C@H]1C(=O)O` [Example 63, (S)-4-(2′-Formyl-biphenyl-4-sulfonyl)-2,2-dimethyl-thiomorpholine-3-carboxylic acid], the results for the IC50 in experiment [1], in experiment [2] and in experiment [4] were 68 µM, 21 µM and 62.5 µM, respectively.
Consider `Cc1cc(-c2ccc(S(=O)(=O)N3CCSC(C)(C)[C@@H]3C(=O)O)cc2)ccc1F` [Example 51, (S)-4-(4′-Fluoro-3′-methyl-biphenyl-4-sulfonyl)-2,2-dimethyl-thiomorpholine-3-carboxylic acid], for which the IC50 was 0.027 µM in experiment [1], 0.01 µM in experiment [2], 1 µM in experiment [3] and 0.012 µM in experiment [4].
For `Cc1ccc(-c2ccc(S(=O)(=O)N3CCSC(C)(C)[C@@H]3C(=O)O)cc2)s1` [Example 52, (S)-2,2-Dimethyl-4-[4-(5-methyl-thiophen-2-yl)-benzenesulfonyl]-thiomorpholine-3-carboxylic acid], in that order: 0.013 µM, 0.014 µM, 0.52 µM and 0.036 µM.
In the case of `CC1(C)SCCN(S(=O)(=O)c2ccc(-c3ccc(F)c(Cl)c3)cc2)[C@H]1C(=O)O` [Example 42, (S)-4-(3′-Chloro-4′-fluoro-biphenyl-4-sulfonyl)-2,2-dimethyl-thiomorpholine-3-carboxylic acid], the IC50 came to 0.16 µM in experiment [1], 0.0289 µM in experiment [2], 9.15 µM in experiment [3] and 0.113 µM in experiment [4].
On the same counts, the results for `CC1(C)SCCN(S(=O)(=O)c2ccc(-c3ccc(Cl)s3)cc2)[C@H]1C(=O)O` [Example 50, (S)-4-[4-(5-Chloro-thiophen-2-yl)-benzenesulfonyl]-2,2-dimethyl-thiomorpholine-3-carboxylic acid] are 0.024 µM, 0.019 µM, 1.5 µM and 0.12 µM.
Regarding `COc1cc(-c2ccc(S(=O)(=O)N3CCSC(C)(C)[C@@H]3C(=O)O)cc2)cc(OC)c1OC` [Example 55, (S)-2,2-Dimethyl-4-(3′,4′,5′-trimethoxy-biphenyl-4-sulfonyl)-thiomorpholine-3-carboxylic acid], the IC50 turned out to be 8.8 µM in experiment [1], 8.9 µM in experiment [2], 59 µM in experiment [3] and 7.7 µM in experiment [4].
On the same counts, the results for `CC1(C)SCCN(S(=O)(=O)c2ccc(-c3ccc(Cl)cc3)cc2)[C@H]1C(=O)O` [Example 29, (S)-4-(4′-Chloro-biphenyl-4-sulfonyl)-2,2-dimethyl-thiomorpholine-3-carboxylic acid] are more than 100 µM, more than 100 µM, more than 100 µM and more than 100 µM.
Take `COc1cccc(OC)c1-c1ccc(S(=O)(=O)N2CCSC(C)(C)[C@@H]2C(=O)O)cc1` [Example 60, (S)-4-(2′,6′-Dimethoxy-biphenyl-4-sulfonyl)-2,2-dimethyl-thiomorpholine-3-carboxylic acid]: the IC50 in experiment [1] was determined as 39 µM; in experiment [2], 9.95 µM; in experiment [4], 25.5 µM.
On the same counts, the results for `CC1(C)SCCN(S(=O)(=O)c2ccc(-c3cccc(C#N)c3)cc2)[C@H]1C(=O)O` [Example 62, (S)-4-(3′-Cyano-biphenyl-4-sulfonyl)-2,2-dimethyl-thiomorpholine-3-carboxylic acid] are 6.2 µM, 0.83 µM and 4.9 µM.
